Data: ChEMBL document CHEMBL4813985, “Lead optimization generates selenium-containing miconazole CYP51 inhibitors with improved pharmacological profile for the treatment of fungal infections” (Eur J Med Chem, 2021)
≈ marks a conversion by molar mass, not a printed value.

Key:
[1] = biological target: T1, Lanosterol 14-alpha demethylase (Candida albicans (strain SC5314 / ATCC MYA-2876) (Yeast), UniProt P10613); assay: Inhibition of CYP51 in Candida albicans ATCC SC5314 assessed as lanosterol level at 8 ug/ml after 16 hrs by GC-MS analysis (reference value: 1.7%); design: scale not given: the % may be the effect or the level left; settings: candida albicans sc5314, 16 h, at 8 µg/mL
Candida albicans [2] = assay: Fungicidal activity against Candida albicans CPCC400616 assessed as fungal killing incubated for 48 hrs followed by culturing on PDA plate for 24 hrs; type: functional; settings: time 72 hrs
[3] = biological target: T1, Lanosterol 14-alpha demethylase; assay: Inhibition of CYP51 in Candida albicans ATCC SC5314 assessed as lanosterol level at […] ug/ml after 16 hrs by GC-MS analysis (reference value: 1.7%); design: scale not given: the % may be the effect or the level left; settings: candida albicans sc5314, 16 h, dose 0.125 µg/ml
[4] = biological target: T1, Lanosterol 14-alpha demethylase; assay: Inhibition of CYP51 in Candida albicans ATCC SC5314 assessed as Obtusifoliol level at 2 ug/ml after 16 hrs by GC-MS analysis (reference value: 0%); design: scale not given: the % may be the effect or the level left; settings: candida albicans sc5314, 16 h, at 2 µg/mL
HL-60 = assay: Cytotoxicity against human HL-60 cells assessed as reduction in cell viability incubated for 96 hrs by MTT assay; type: cell-based; settings: HL-60, 96 h
Cryptococcus neoformans = assay: Antifungal activity against Cryptococcus neoformans CMGCC2.3161 measured after 72 hrs by broth microdilution assay; type: functional
[5] = Hemolytic activity in rabbit RBC assessed as hemolysis ratio at 16 ug/ml measured after 3 hrs by microplate reader assay relative to control; type: ADME, cell-based, Oryctolagus cuniculus, Erythrocyte; settings: rabbit red blood cells (erythrocytes), at 16 µg/mL, read-out: Activity
Candida parapsilosis = assay: Antifungal activity against Candida parapsilosis ATCC 22019 measured after 24 hrs by broth microdilution assay; type: functional; settings: Lodderomyces parapsilosis
[6] = Hemolytic activity in rabbit RBC assessed as hemolysis ratio at 2 ug/ml measured after 3 hrs by microplate reader assay relative to control; type: ADME, cell-based, Oryctolagus cuniculus, Erythrocyte; settings: rabbit red blood cells (erythrocytes), at 2 µg/mL, read-out: Activity
[7] = Metabolic stability in mouse liver microsomes assessed as clearance; type: ADME, Microsome; settings: read-out: CLH
[8] = Metabolic stability in mouse liver microsomes assessed as half life; type: ADME, Microsome
[9] = biological target: T1, Lanosterol 14-alpha demethylase; assay: Inhibition of CYP51 in Candida albicans ATCC SC5314 assessed as lanosterol level at 0.5 ug/ml after 16 hrs by GC-MS analysis (reference value: 1.7%); design: scale not given: the % may be the effect or the level left; settings: candida albicans sc5314, 16 h, at 0.5 µg/mL
MDA-MB-231 = assay: Cytotoxicity against human MDA-MB-231 cells assessed as reduction in cell viability incubated for 96 hrs by MTT assay; settings: MDA-MB-231, 96 h
Nakaseomyces glabratus = assay: Antifungal activity against Candida glabrata measured after 24 hrs by broth microdilution assay; type: functional
[10] = biological target: T1, Lanosterol 14-alpha demethylase; assay: Inhibition of CYP51 in Candida albicans ATCC SC5314 assessed as Eburicol level at 0.03125 ug/ml after 16 hrs by GC-MS analysis (reference value: 0%); design: scale not given: the % may be the effect or the level left; settings: candida albicans sc5314, 16 h, at 0.03125 µg/mL
Candida albicans [11] = assay: Anti-biofilm activity in Candida albicans CPCC400616 assessed as inhibition of biofilm formation incubated for 24 hrs with 3 hrs precultured fungal suspension by XTT assay; type: functional
[12] = biological target: T1, Lanosterol 14-alpha demethylase; assay: Inhibition of CYP51 in Candida albicans ATCC SC5314 assessed as Eburicol level at 0.5 ug/ml after 16 hrs by GC-MS analysis (reference value: 0%); design: scale not given: the % may be the effect or the level left; settings: candida albicans sc5314, 16 h, at 0.5 µg/mL
[13] = biological target: T1, Lanosterol 14-alpha demethylase; assay: Inhibition of CYP51 in Candida albicans ATCC SC5314 assessed as Obtusifoliol level at […] ug/ml after 16 hrs by GC-MS analysis (reference value: 0%); design: scale not given: the % may be the effect or the level left; settings: candida albicans sc5314, 16 h, dose 0.125 µg/ml
[14] = Hemolytic activity in rabbit RBC assessed as hemolysis ratio at 4 ug/ml measured after 3 hrs by microplate reader assay relative to control; type: ADME, cell-based, Oryctolagus cuniculus, Erythrocyte; settings: rabbit red blood cells (erythrocytes), at 4 µg/mL, read-out: Activity
[15] = biological target: T1, Lanosterol 14-alpha demethylase; assay: Inhibition of CYP51 in Candida albicans ATCC SC5314 assessed as Obtusifoliol level at 8 ug/ml after 16 hrs by GC-MS analysis (reference value: 0%); design: scale not given: the % may be the effect or the level left; settings: candida albicans sc5314, 16 h, at 8 µg/mL
[16] = biological target: T1, Lanosterol 14-alpha demethylase; assay: Inhibition of CYP51 in Candida albicans ATCC SC5314 assessed as Eburicol level at 2 ug/ml after 16 hrs by GC-MS analysis (reference value: 0%); design: scale not given: the % may be the effect or the level left; settings: candida albicans sc5314, 16 h, at 2 µg/mL
[17] = biological target: T1, Lanosterol 14-alpha demethylase; assay: Inhibition of CYP51 in Candida albicans ATCC SC5314 assessed as lanosterol level at 0.03125 ug/ml after 16 hrs by GC-MS analysis (reference value: 1.7%); design: scale not given: the % may be the effect or the level left; settings: candida albicans sc5314, 16 h, at 0.03125 µg/mL
[18] = biological target: T1, Lanosterol 14-alpha demethylase; assay: Inhibition of CYP51 in Candida albicans ATCC SC5314 assessed as ergosterol level at 8 ug/ml after 16 hrs by GC-MS analysis (reference value: 98.3%); design: scale not given: the % may be the effect or the level left; settings: candida albicans sc5314, 16 h, at 8 µg/mL
[19] = biological target: T1, Lanosterol 14-alpha demethylase; assay: Inhibition of CYP51 in Candida albicans ATCC SC5314 assessed as lanosterol level at 2 ug/ml after 16 hrs by GC-MS analysis (reference value: 1.7%); design: scale not given: the % may be the effect or the level left; settings: candida albicans sc5314, 16 h, at 2 µg/mL
[20] = biological target: T1, Lanosterol 14-alpha demethylase; assay: Inhibition of CYP51 in Candida albicans ATCC SC5314 assessed as Eburicol level at 8 ug/ml after 16 hrs by GC-MS analysis (reference value: 0%); design: scale not given: the % may be the effect or the level left; settings: candida albicans sc5314, 16 h, at 8 µg/mL
[21] = Hemolytic activity in rabbit RBC assessed as hemolysis ratio at 1 ug/ml measured after 3 hrs by microplate reader assay relative to control; type: ADME, cell-based, Oryctolagus cuniculus, Erythrocyte; settings: rabbit red blood cells (erythrocytes), at 1 µg/mL, read-out: Activity
Candida albicans [22] = assay: Anti-biofilm activity in Candida albicans CPCC400616 assessed as inhibition of biofilm formation incubated for 24 hrs with 6 hrs precultured fungal suspension by XTT assay; type: functional
[23] = biological target: T1, Lanosterol 14-alpha demethylase; assay: Inhibition of CYP51 in Candida albicans ATCC SC5314 assessed as ergosterol level at […] ug/ml after 16 hrs by GC-MS analysis (reference value: 98.3%); design: scale not given: the % may be the effect or the level left; settings: candida albicans sc5314, 16 h, dose 0.125 µg/ml
Candida albicans [24] = assay: Antifungal activity against Candida albicans CPCC400616 measured after 24 hrs by broth microdilution assay; type: functional
Pichia kudriavzevii = assay: Antifungal activity against Candida krusei AS2.1045 measured after 24 hrs by broth microdilution assay; type: functional
[25] = biological target: T1, Lanosterol 14-alpha demethylase; assay: Inhibition of CYP51 in Candida albicans ATCC SC5314 assessed as Eburicol level at […] ug/ml after 16 hrs by GC-MS analysis (reference value: 0%); design: scale not given: the % may be the effect or the level left; settings: candida albicans sc5314, 16 h, dose 0.125 µg/ml
[26] = Hemolytic activity in rabbit RBC assessed as hemolysis ratio at 8 ug/ml measured after 3 hrs by microplate reader assay relative to control; type: ADME, cell-based, Oryctolagus cuniculus, Erythrocyte; settings: rabbit red blood cells (erythrocytes), at 8 µg/mL, read-out: Activity
Aspergillus fumigatus = assay: Antifungal activity against Aspergillus fumigatus CMGCC3.7795 measured after 72 hrs by broth microdilution assay; type: functional
PC-3 = assay: Cytotoxicity against human PC3 cells assessed as reduction in cell viability incubated for 96 hrs by MTT assay; type: cell-based; settings: PC-3, 96 h, read-out: IC50
[27] = biological target: T1, Lanosterol 14-alpha demethylase; assay: Inhibition of CYP51 in Candida albicans ATCC SC5314 assessed as ergosterol level at 2 ug/ml after 16 hrs by GC-MS analysis (reference value: 98.3%); design: scale not given: the % may be the effect or the level left; settings: candida albicans sc5314, 16 h, at 2 µg/mL

T1 sequence (P10613 whole entry): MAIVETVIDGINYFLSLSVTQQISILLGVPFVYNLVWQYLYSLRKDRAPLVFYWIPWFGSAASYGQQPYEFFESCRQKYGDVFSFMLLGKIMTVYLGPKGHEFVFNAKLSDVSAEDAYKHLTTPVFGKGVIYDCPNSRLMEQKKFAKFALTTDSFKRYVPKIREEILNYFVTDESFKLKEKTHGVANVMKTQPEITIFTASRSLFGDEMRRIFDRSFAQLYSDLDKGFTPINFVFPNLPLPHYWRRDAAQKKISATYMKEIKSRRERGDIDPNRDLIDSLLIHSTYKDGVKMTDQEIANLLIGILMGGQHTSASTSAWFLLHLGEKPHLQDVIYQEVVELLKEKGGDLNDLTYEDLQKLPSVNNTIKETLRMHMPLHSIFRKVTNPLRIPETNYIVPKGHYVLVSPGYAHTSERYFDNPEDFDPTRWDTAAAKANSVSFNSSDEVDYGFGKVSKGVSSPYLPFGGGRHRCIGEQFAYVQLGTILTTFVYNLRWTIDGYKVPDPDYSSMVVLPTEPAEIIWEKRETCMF

Fc1ccc([Se]C(Cn2ccnc2)c2ccc(F)cc2F)cc1 (centres undefined)
Activity [1]: 5.7%
MFC99 (Candida albicans [2]): 1 µg/mL (≈ 2.62 µM)
Activity [3]: 9.9%
Activity [4]: 10.8%
IC50 (HL-60): 24.8 µM
MIC (Cryptococcus neoformans): 0.5 µg/mL (≈ 1.31 µM)
hemolysis at 3 h, 16 ug/ml [5]: 100%
MIC (Candida parapsilosis): 0.03 µg/mL (≈ 0.0787 µM)
hemolysis at 3 h, 2 ug/ml [6]: 0%
CLint scaled [7]: 282 mL/min/kg
half-life [8]: 19.4 min
Activity [9]: 10.1%
IC50 (MDA-MB-231): 39.5 µM
MIC (Nakaseomyces glabratus): 1 µg/mL (≈ 2.62 µM)
Activity [10]: 70.2%
MIC50 (Candida albicans [11]): 8 µg/mL (≈ 21 µM)
MIC80 (Candida albicans [11]): 16 µg/mL (≈ 42 µM)
Activity [12]: 75.1%
Activity [13]: 11.1%
hemolysis at 3 h, 4 ug/ml [14]: 0%
Activity [15]: 10.2%
Activity [16]: 78%
Activity [17]: 4.1%
Activity [18]: 2.1%
Activity [19]: 9%
Activity [20]: 82%
hemolysis at 3 h, 1 ug/ml [21]: 0%
MIC50 (Candida albicans [22]): 64 µg/mL (≈ 168 µM)
MIC80 (Candida albicans [22]): 128 µg/mL (≈ 336 µM)
Activity [23]: 5.8%
MIC (Candida albicans [24]): 0.25 µg/mL (≈ 0.656 µM)
MIC (Pichia kudriavzevii): 0.5 µg/mL (≈ 1.31 µM)
Activity [25]: 73.2%
hemolysis at 3 h, 8 ug/ml [26]: 0.33%
MIC (Aspergillus fumigatus): 4 µg/mL (≈ 10.5 µM)
IC50 (PC-3): 54.4 µM
Activity [27]: 2.2%

Clc1ccc(COC(Cn2ccnc2)c2ccc(Cl)cc2Cl)c(Cl)c1 (centres undefined) [MICONAZOLE]
Activity [1]: 7.4%
MFC99 (Candida albicans [2]): 2 µg/mL (≈ 4.81 µM)
Activity [3]: 9.5%
Activity [4]: 6.1%
IC50 (HL-60): 0.8 µM
MIC (Cryptococcus neoformans): 0.5 µg/mL (≈ 1.2 µM)
hemolysis at 3 h, 16 ug/ml [5]: 94%
MIC (Candida parapsilosis): 0.25 µg/mL (≈ 0.601 µM)
hemolysis at 3 h, 2 ug/ml [6]: 8.55%
CLint scaled [7]: 660 mL/min/kg
half-life [8]: 8.3 min
Activity [9]: 8.9%
IC50 (MDA-MB-231): 17 µM
MIC (Nakaseomyces glabratus): 0.5 µg/mL (≈ 1.2 µM)
Activity [10]: 70.6%
MIC50 (Candida albicans [11]): 32 µg/mL (≈ 76.9 µM)
MIC80 (Candida albicans [11]): 128 µg/mL (≈ 308 µM)
Activity [12]: 75.1%
Activity [13]: 17.4%
hemolysis at 3 h, 4 ug/ml [14]: 81.8%
Activity [15]: 7.8%
Activity [16]: 75.2%
Activity [17]: 10%
Activity [18]: 4.1%
Activity [19]: 13.6%
Activity [20]: 80.7%
hemolysis at 3 h, 1 ug/ml [21]: 0.16%
MIC50 (Candida albicans [22]): > 128 µg/mL
MIC80 (Candida albicans [22]): > 128 µg/mL
Activity [23]: 8.3%
MIC (Candida albicans [24]): 0.25 µg/mL (≈ 0.601 µM)
MIC (Pichia kudriavzevii): 0.5 µg/mL (≈ 1.2 µM)
Activity [25]: 64.8%
hemolysis at 3 h, 8 ug/ml [26]: 87.3%
MIC (Aspergillus fumigatus): 2 µg/mL (≈ 4.81 µM)
IC50 (PC-3): 13.4 µM
Activity [27]: 5.2%
